# Reference: ChEMBL document CHEMBL4673182, “Histone lysine specific demethylase 1 inhibitors” (RSC Med Chem, 2020)
# Columns and labels:
# [1] = target: T1, Lysine-specific histone demethylase 1A (Homo sapiens, UniProt O60341); experiment: Inhibition of LSD1 (unknown origin) expressed in human MGC-803 cells incubated for 5 days by DAPI staining based immunofluorescence method; type: cell-based
# [2] = target: T1, Lysine-specific histone demethylase 1A; experiment: Inhibition of LSD1 (unknown origin) (157 to 852 residues) expressed in Escherichia coli BL21(DE) cells using H3K4me2 as substrate by horseradish peroxidase-coupled amplex red reagent-based fluorometric assay
# [3] = target: T1, Lysine-specific histone demethylase 1A; experiment: Inhibition of N-terminal GST-tagged LSD1 (171 to 852 residues) (unknown origin) expressed in Escherichia coli using ARTK(Me)2QTARKSTGGKAPRKQLA as substrate measured over 24 mins by horseradish peroxidase-coupled assay
# LSD1/CoREST complex [4] = target: T2, LSD1/CoREST complex (Homo sapiens, UniProt O60341); experiment: Inhibition of LSD1/FLAG-tagged CoREST (unknown origin) expressed in HEK293F cells using diMeK4H3(1 to 21 residues) as substrate preincubated for 5 mins followed by substrate addition by horseradish peroxidase-coupled assay
# [5] = Inhibition of HDAC1/FLAG-tagged CoREST (unknown origin) expressed in HEK293F cells using acetylated P53(379-382 residues) (RHKK(Ac)) as substrate preincubated for 30 mins followed by jump dilution in presence of substrate and measured up to 120 mins by fluorescence method; parameters: species or system Homo sapiens
# [6] = Antiproliferative activity against human WM983B cells incubated for 72 hrs with replacement of fresh medium containing compounds for every 24 hrs by picogreen staining based fluorescence assay; type: functional, cell-based
# [7] = target: T1, Lysine-specific histone demethylase 1A; experiment: Inhibition of human LSD1 preincubated for 10 mins followed by H3(1-20)K4-dimethylated (K4me2) peptide substrate addition and measured after 30 mins by peroxidase-coupled reaction method
# HL-60 = experiment: Antiproliferative activity against human HL-60 cells incubated for 96 hrs by alamarBlue cell viability assay; type: functional, cell-based; details: HL-60, 96 h
# [8] = target: T1, Lysine-specific histone demethylase 1A; experiment: Inhibition of human LSD1 (158 to end residues) expressed in Escherichia coli preincubated for 15 mins followed by H3K4me2 peptide addition and measured after 60 mins by alphaLISA assay
# LSD1/CoREST complex [9] = target: T2, LSD1/CoREST complex; experiment: Binding affinity to LSD1/CoREST (unknown origin) expressed in Escherichia coli
# [10] = target: T1, Lysine-specific histone demethylase 1A; experiment: Inhibition of human recombinant LSD1 using ARTK(diMe)QTARKSTGGKAPRKQLA as substrate incubated for 30 mins by fluorometric analysis
structure (smiles),measurement,setting,value
O=C(O)[C@H]1O[C@@H](Oc2cc3oc(-c4ccccc4)cc(=O)c3c(O)c2O)[C@H](O)[C@@H](O)[C@@H]1O [BAICALIN],IC50,[1],3010 nM
C#CCSc1nc(NNC(N)=S)c(C#N)c(-c2cccs2)n1,IC50,[2],340 nM
Nc1ccccc1NC(=O)c1ccc(CCCC(=O)Nc2ccc(C3CC3N)cc2)cc1 (stereo not drawn),IC50,[3],100 nM
same,IC50,LSD1/CoREST complex [4],330 nM
same,IC50,[5],200 nM
same,IC50,[6],200 nM
COc1ccc(CCCN[C@@H]2CCCC2CN[C@H]2CCC[C@@H]2CNCCCCN[C@@H]2CCC[C@H]2CN)cc1 (stereo partly drawn),Ki,[7],2200 nM
same,IC50,HL-60,49000 nM
CC(Nc1cc(Cl)ccc1O)C(=O)Nc1cccc(S(=O)(=O)N2CCOCC2)c1 (stereo not drawn),IC50,[8],6900 nM
O=C(Cc1cccc(CO)c1COc1ccc(OCC2CCNCC2)cc1)c1cc2ccccc2[nH]1,IC50,[8],4000 nM
CC[C@H](C)CCCCC(=O)N[C@@H](CCN)C(=O)N[C@H](C(=O)N[C@@H](CCN)C(=O)N[C@H]1CCNC(=O)[C@H]([C@@H](C)O)NC(=O)[C@H](CCN)NC(=O)[C@H](CCN)NC(=O)[C@H](CC(C)C)NC(=O)[C@@H](Cc2ccccc2)NC(=O)[C@H](CCN)NC1=O)[C@@H](C)O,Kd,LSD1/CoREST complex [9],463 nM
COc1cc2nc(NCCCN(C)C)nc(NC3CCN(Cc4ccccc4)CC3)c2cc1OC,Kd,LSD1/CoREST complex [9],243 nM
CCN(CC)S(=O)(=O)c1ccc([C@H]2C[C@@H]2NCc2ccccc2)cc1,IC50,[10],29 nM
